Patent publication US20250382280A1, “PYRAZOLE DERIVATIVES FOR THE INHIBITION OF PHAGOCYTOSIS” (Canadian Blood Services, priority 2022, published 2025)
Where two headings read alike, the source gives them in different places.

System: phagocytosis of anti-D-opsonized Rh(D+) red cells by monocytes
Assay: monocyte monolayer assay (MMA), in vitro phagocytosis assay
Assay type: cell-based, human
Set-up: key to Phagocytic index (PI): number of phagocytosed RBCs per 100 monocytes
Conditions: for inhibition at 5 µM / IC50 / EC50: Homo sapiens, Monocyte; for Phagocytic index (PI): PI = (# of phagocytic red blood cells)/(300 monocytes) * 100; for IC50 / EC50: dose-inhibitory response; for IC50: 0.5-100 μM, read-out: IC50 for inhibition of phagocytosis
Description: The MMA to screen compounds for their ability to inhibit phagocytosis was performed as previously described (Purohit, M. K. et al., Bioorg. Med. Chem. Lett. 2013; 23:2324-7; and Purohit, M. K. et al., Bioorg. Med. Chem. 2014; 22:2739-52.). Briefly, Mononuclear cells (PBMCs) were layered onto chamber slides and monocytes purified by adherence after 1 hr at 37° C. with 5% CO2. Drugs were solubilized in 100% DMSO and then diluted in Roswell Park Memorial Institute (RPMI) to the final concentration of 5 μM, as previously reported (8,9). Corresponding dimethyl sulfoxide (DMSO) volumes in RPMI medium were used as a control. After one hour, indicator Rh-positive red cells opsonized with anti-RhD were added to the chamber slides and then further incubated for 2 hours before fixing and counting phagocytosed red blood cells (RBCs) using phase-contrast microscopy. As a positive control for inhibition, Intravenous immunoglobulin (IVIg) was used, known to inhibit phagocytosis due to blocking of FcγRs. The phagocytosis index (PI) was determined as the number of phagocytosed RBCs in 100 monocytes. The percent inhibition of phagocytosis was determined by comparing the PI in each treated sample to the PI in the untreated sample, which was determined by normalizing the PI concentration in each treated sample (phagocytosis of opsonized RBCs with vehicle only, representing 100 percent phagocytosis.
Concentrations included 100 μM, 50 μM, 25 μM, 10 μM, 5 μM, 2.5 μM, 1 μM, and 0.5 μM.
The 80 selected pyrazole core compounds were screened using a concentration of 5 μM in the in vitro phagocytosis assay, referred to as the monocyte monolayer assay (MMA). Compounds were compared to a standard intravenous immunoglobulin (IVIg) at a concentration of 1 mg/mL.

[1] = 5 μM compound, screening of the 80 compounds, read-out: Average inhibition (% ± standard deviation)
[2] = 5 μM, anti-D-opsonized Rh(D+) red cells, read-out: Inhibition percentage

Cn1ncc(I)c1C(=O)Nc1cccc2ccccc12 [KB-160]
inhibition at 5 µM [1]: -2 ± 5.32%

CC(=O)n1nc(C)c(S(=O)(=O)N2CCCC2)c1C [KB-188]
inhibition at 5 µM [1]: -26 ± 7.94%

FC(F)(F)c1cc(-c2cccs2)nc(-n2nc(C(F)(F)F)c3c2CCC3)n1 [KB-211]
inhibition at 5 µM [1]: 33 ± 2.31%

Cc1nn(-c2ccc3nnc(C)n3n2)c2c1C(c1cccs1)CC(=O)N2 (centres unmarked) [KB-190]
Phagocytic index (PI) (5 μM): 27
inhibition at 5 µM [1]: 56 ± 1.24%
inhibition at 5 µM [2]: 56%

Cc1c(Nc2ncnc3c2cnn3-c2ccccc2)c(=O)n(-c2ccccc2)n1C [KB-149]
inhibition at 5 µM [1]: 0%

N#CCCn1cc(C(=O)Nc2nccs2)c(-c2ccc3c(c2)OCCO3)n1 [KB-165]
inhibition at 5 µM [1]: 33 ± 5.3%

O=C(Nc1nccs1)c1cnn(-c2ccccc2)c1-n1cccc1 [KB-210]
Phagocytic index (PI) (5 μM): 11
IC50: 22.1 µM
inhibition at 5 µM [1]: 69 ± 5.32%
inhibition at 5 µM [2]: 69%
EC50: > 10 µM

CCOC(=O)c1cnn(-c2ncnc3c2cnn3-c2ccc(F)cc2)c1N [KB-199]
Phagocytic index (PI) (5 μM): 40
inhibition at 5 µM [1]: 40 ± 5.46%
inhibition at 5 µM [2]: 40%

Cc1ccccc1C1CCCN1C(=O)Cn1nc(C(F)(F)F)cc1C (centres unmarked) [KB-196]
inhibition at 5 µM [1]: 24 ± 5.76%

CN(C)CCNC(=O)c1cc(-c2ccc(Cl)cc2)nn1-c1ccccc1 [KB-201]
inhibition at 5 µM [1]: 0%

Cc1cc2c(cc1C)NC(c1c(C)n(C)n(-c3ccccc3)c1=O)C1=C(CC(C)(C)CC1=O)N2 (centres unmarked) [KB-153]
inhibition at 5 µM [1]: 8 ± 8.3%

O=C(NCc1ccncc1)c1cnn(-c2ccccc2F)c1-n1cccc1 [KB-203]
inhibition at 5 µM [1]: 27 ± 2.72%

O=c1cc(CSc2nc3ccccc3s2)[nH]c2[nH]n(-c3ccccc3)c(=O)c12 [KB-191]
inhibition at 5 µM [1]: -23 ± 7.85%

Cc1[nH]n(-c2ccccc2)c(=O)c1C1(C(F)(F)F)C(=O)Nc2c1c(=O)[nH]c(=O)n2Cc1ccccc1 (centres unmarked) [KB-167]
Phagocytic index (PI) (5 μM): 14
inhibition at 5 µM [1]: 53 ± 4.18%
inhibition at 5 µM [2]: 53%

O=C1NC(=O)C2C1C(c1ccc(O)cc1)NN2Cc1ccccc1 (centres unmarked) [KB-157]
inhibition at 5 µM [1]: 3 ± 9.96%

N#CCCn1cc(C(N)=O)c(-c2cccc(Cl)c2)n1 [KB-164]
inhibition at 5 µM [1]: -3 ± 9.7%

COc1ccc(-c2cc(C(=O)NCCc3c[nH]c4ccccc34)[nH]n2)cc1 [KB-213]
Phagocytic index (PI) (5 μM): 13
inhibition at 5 µM [1]: 64 ± 8.74%
inhibition at 5 µM [2]: 64%

Cc1c(NC(=O)c2ccn3c(C(F)(F)F)cc(-c4ccccc4)nc23)c(=O)n(-c2ccccc2)n1C [KB-169]
inhibition at 5 µM [1]: 0%

Cc1nn(-c2ccccc2)c2sc(C(=O)NCCO)cc12 [KB-136]
inhibition at 5 µM [1]: -4 ± 1.82%

COc1cc(-c2cc[nH]n2)cc(OC)c1OC [KB-194]
inhibition at 5 µM [1]: 39 ± 4.96%

CSc1nc2ccc(S(=O)(=O)Nc3c(C)n(C)n(-c4ccccc4)c3=O)cc2s1 [KB-170]
inhibition at 5 µM [1]: -13 ± 4.31%

CCn1nccc1C1CCCN1S(=O)(=O)c1cc(C)ccc1C (centres unmarked) [KB-198a]
IC50: 227 µM

Cc1cc(-c2ccco2)n(-c2ccccc2)n1 [KB-135]
inhibition at 5 µM [1]: 18 ± 2.7%

CCOC(=O)c1cnn(-c2ccccc2)c1NC(=O)CSc1nc(SC)ns1 [KB-171]
inhibition at 5 µM [1]: 7 ± 0.39%

CCOC(=O)c1c(N)nn(C(=O)CC)c1-c1ccccc1 [KB-156]
inhibition at 5 µM [1]: 2 ± 6.64%

Cc1n[nH]c(C)c1Sc1ccc(Cl)cc1 [KB-138]
inhibition at 5 µM [1]: 38 ± 6.56%

CCn1cc(Br)c(C(=O)Nc2cc(Cl)ccc2OC)n1 [KB-146]
inhibition at 5 µM [1]: 10 ± 9.56%

Cc1cc(C)n(C(=O)c2ccoc2C)n1 [KB-142]
inhibition at 5 µM [1]: 11 ± 6.51%

CCOC(=O)c1cnn(-c2ccccc2)c1NC(=O)Cc1cccc(OC)c1 [KB-159]
inhibition at 5 µM [1]: 15 ± 8.4%

CCOC(=O)C1=NNC2C(=O)N(CC)C(=O)C12 (centres unmarked) [KB-133]
inhibition at 5 µM [1]: 24 ± 8.98%

COc1cc(S(=O)(=O)n2cccn2)c(OC)cc1Cl [KB-176]
inhibition at 5 µM [1]: -10 ± 7.06%

CCOc1ccc(NC(=O)c2cnn(-c3ccccc3)c2NC(=O)c2ccco2)cc1 [KB-140]
inhibition at 5 µM [1]: 31 ± 7.84%

Cc1cc(C)n(C(=O)COc2ccccc2C)n1 [KB-141]
inhibition at 5 µM [1]: 36 ± 9.37%

COC(=O)c1n[nH]c(N)c1Cl [KB-134]
inhibition at 5 µM [1]: 9 ± 6.99%

CN(C)C(=O)c1cn(-c2ccccc2)nc1-c1ccccc1 [KB-132]
inhibition at 5 µM [1]: -9 ± 3.47%

CCc1cccc(NS(=O)(=O)c2cnn(CC)c2C)c1 [KB-177]
inhibition at 5 µM [1]: 4 ± 9.76%

Cn1ncc(Br)c1C(=O)Oc1ccccc1Cl [KB-147]
inhibition at 5 µM [1]: 0%

Cc1cc(=O)n(CCN2CCOCC2)c2c1c(C)nn2-c1ccccc1 [KB-183]
inhibition at 5 µM [1]: -28 ± 9.96%

Cn1ncc(Br)c1C(=O)N1CCCC1c1ccc(F)cc1 (centres unmarked) [KB-192]
inhibition at 5 µM [1]: -29 ± 9.54%

COc1ccc(S(=O)(=O)n2cccn2)cc1C(C)(C)C [KB-173]
inhibition at 5 µM [1]: -8 ± 8.88%

CSc1cccc(NC(=O)c2cnn(C)c2-n2cccc2)c1 [KB-212]
Phagocytic index (PI) (5 μM): 19
inhibition at 5 µM [1]: 47 ± 9.67%
inhibition at 5 µM [2]: 47%

Nc1c(C(=O)O)cnn1-c1ccc(F)cc1F [KB-209]
Phagocytic index (PI) (5 μM): 18
inhibition at 5 µM [1]: 50 ± 1.02%
inhibition at 5 µM [2]: 50%

COC(=O)N1N=C(C2CCCCC2)CC1(O)C(F)(F)F (centres unmarked) [KB-158]
inhibition at 5 µM [1]: 0%

Cc1ccc2nc(-c3ccc4c(c3)OCO4)cc(C(=O)Nc3c(C)n(C)n(-c4ccccc4)c3=O)c2c1 [KB-163]
inhibition at 5 µM [1]: -30 ± 1.77%

Cc1nn(C)cc1S(=O)(=O)NCc1ccccc1Cl [KB-180]
inhibition at 5 µM [1]: -42 ± 8.81%

Cc1cc(C)n(S(=O)(=O)c2ccccc2)n1 [KB-137]
inhibition at 5 µM [1]: 10 ± 1.21%

CC(CCc1ccccc1)NC(=O)c1cnn(C)c1-n1cccc1 (centres unmarked) [KB-205]
Phagocytic index (PI) (5 μM): 19
inhibition at 5 µM [1]: 47 ± 0.98%
inhibition at 5 µM [2]: 47%

COc1ccc(C2=NN(C(C)=O)C(c3ccco3)C2)cc1OC (centres unmarked) [KB-154]
inhibition at 5 µM [1]: 2 ± 5.19%

CC(=O)N1N=C(c2cccs2)CC1c1ccccc1C (centres unmarked) [KB-161]
inhibition at 5 µM [1]: 7 ± 8.43%

Cc1cccc(OCCCc2c(C)n[nH]c2C)c1C [KB-139]
inhibition at 5 µM [1]: 6 ± 3.48%

Cc1c(S(=O)(=O)N2CCCC2c2ccccc2Cl)cnn1C(F)F (centres unmarked) [KB-197]
inhibition at 5 µM [1]: 45 ± 4.97%

CC(C)c1cc(C(=O)Nc2nnc(C3CCCO3)s2)n(-c2ccccc2)n1 (centres unmarked) [KB-206]
Phagocytic index (PI) (5 μM): 18
inhibition at 5 µM [1]: 50 ± 5.46%
inhibition at 5 µM [2]: 50%

COc1cccc(-c2cc(C(=O)Nc3cc(C)nn3-c3ccccc3)on2)c1 [KB-195]
inhibition at 5 µM [1]: 25 ± 6.36%

O=C(Nc1ccncc1)c1cc(C2CC2)nn1-c1ccccc1 [KB-204]
inhibition at 5 µM [1]: 36 ± 3.6%

Cc1cc(NC(=O)c2cnn3c2NC(c2ccco2)CC3C(F)(F)F)n(-c2ccccc2)n1 (centres unmarked) [KB-168]
inhibition at 5 µM [1]: 23 ± 3.86%

CCn1ncc(Br)c1C(=O)NC1CCCCC1 [KB-150]
inhibition at 5 µM [1]: 24 ± 8.58%

Cc1nn(C)c(C)c1-c1cc(C(=O)O)[nH]n1 [KB-189]
Phagocytic index (PI) (5 μM): 30
inhibition at 5 µM [1]: 52 ± 4.75%
inhibition at 5 µM [2]: 52%

COc1ccccc1-c1cc(C(=O)Nc2c(C)n(C)n(-c3ccccc3)c2=O)no1 [KB-200]
inhibition at 5 µM [1]: 31 ± 1.84%

CCn1cc(S(=O)(=O)NCCc2ccc(OC)c(OC)c2)cn1 [KB-179]
Phagocytic index (PI) (5 μM): 14
inhibition at 5 µM [1]: 53 ± 1.18%
inhibition at 5 µM [2]: 53%

Cn1cc(Cl)c(C(=O)Nc2ccc(F)cc2F)n1 [KB-148]
inhibition at 5 µM [1]: 28 ± 9.62%

COc1ccc(-c2nc(-n3c(C)c(C(C)=O)c(C(C)=O)c3C)sc2C)cc1OC [KB-152]
inhibition at 5 µM [1]: 2 ± 8.84%

CCOC(=O)c1c(C)nn(-c2nc(C)cc(C)n2)c1N [KB-181]
Phagocytic index (PI) (5 μM): 37
inhibition at 5 µM [1]: -11 ± 10.3%
inhibition at 5 µM [2]: 45%

COc1ccc(-c2cc(C(=O)O)nn2C2CCS(=O)(=O)C2)cc1 (centres unmarked) [KB-185]
inhibition at 5 µM [1]: -3 ± 3.6%

Cc1nn(C(=O)N(C)C)c(C)c1CN1C(=O)c2ccccc2C1=O [KB-174]
inhibition at 5 µM [1]: 39 ± 9.53%

Cc1coc(C)c1C1=NN(S(C)(=O)=O)C(c2cccs2)C1 (centres unmarked) [KB-175]
Phagocytic index (PI) (5 μM): 15
inhibition at 5 µM [1]: 50 ± 1.45%
inhibition at 5 µM [2]: 50%

CCOC(=O)c1cnn(-c2nc3sc4c(c3c(=O)[nH]2)CCCC4)c1N [KB-162]
inhibition at 5 µM [1]: -37 ± 2.59%

CCOC(=O)c1cnn(C)c1NC(=O)C(CC)Sc1cc(C)ncn1 (centres unmarked) [KB-184]
inhibition at 5 µM [1]: 7 ± 2.92%

COc1ccc(CNC(=O)c2c(Cl)cnn2C)cc1OC [KB-178]
Phagocytic index (PI) (5 μM): 29
inhibition at 5 µM [1]: 53 ± 5.11%
inhibition at 5 µM [2]: 53%

COc1ccc(NC(=O)c2cn(CCC#N)nc2-c2cccs2)cc1 [KB-166]
inhibition at 5 µM [1]: 17 ± 3.91%

Cc1c(NC(=O)CSc2nc3c(c(=O)[nH]2)CCC3)c(=O)n(-c2ccccc2)n1C [KB-186]
Phagocytic index (PI) (5 μM): 28
inhibition at 5 µM [1]: 55 ± 8.43%
inhibition at 5 µM [2]: 55%

CCn1nccc1C1CCCN1S(=O)(=O)c1cc(C)c(C)cc1C (centres unmarked) [KB-198]
Phagocytic index (PI) (5 μM): 9
IC50: 8.43 µM
inhibition at 5 µM [1]: 75 ± 4.76%
inhibition at 5 µM [2]: 75%
EC50: > 10 µM

Cn1ccc(C(=O)Nc2ccc3c(c2)OCCO3)n1 [KB-182]
Phagocytic index (PI) (5 μM): 28
inhibition at 5 µM [1]: 55 ± 3.65%
inhibition at 5 µM [2]: 55%
